These results are taken from publication PMC11001641, “Iron–sulfur cluster assembly scaffold protein IscU is required for activation of ferric uptake regulator (Fur) in Escherichiacoli” (The Journal of Biological Chemistry, 2024).

The target of assay [1] is T1, E. coli FhuF (Escherichia coli, UniProt P39405).
T1 construct: his-tagged, expressed from pBAD in E. coli MC4100
The assay can be described thus: UV-Vis absorption of purified protein. In kind it is binding. The conditions noted are these: pH 8.0; 500 mM NaCl; protein from wild-type E. coli grown in M9 with 2 uM iron; bound during expression.

The target in assay [2] is T2, E. coli ferredoxin (Fdx) (Escherichia coli, UniProt P0A9R4).
T2 construct: his-tagged, expressed from pBAD in E. coli MC4100; isc operon ferredoxin
T2 sequence (P0A9R4 2-111): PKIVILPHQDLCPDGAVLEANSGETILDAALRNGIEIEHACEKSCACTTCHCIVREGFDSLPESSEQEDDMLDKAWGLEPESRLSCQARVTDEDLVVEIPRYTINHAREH
The assay can be described thus: UV-Vis absorption of purified protein. The conditions noted are these: pH 8.0; 500 mM NaCl; protein from wild-type E. coli grown in M9 with 2 uM iron; bound during expression. In kind it is binding.

T1 sequence (P39405 whole entry): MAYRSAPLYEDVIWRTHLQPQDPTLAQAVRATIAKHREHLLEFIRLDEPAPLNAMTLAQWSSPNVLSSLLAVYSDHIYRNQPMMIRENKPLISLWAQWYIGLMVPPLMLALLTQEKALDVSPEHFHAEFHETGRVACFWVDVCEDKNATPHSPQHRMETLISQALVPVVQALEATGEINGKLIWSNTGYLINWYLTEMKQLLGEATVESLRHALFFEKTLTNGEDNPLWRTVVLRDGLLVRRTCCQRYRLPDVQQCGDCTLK

Consider `[S]1[Fe][S][Fe]1` [[2Fe-2S] cluster], for which the “UV-Vis absorption of purified protein” value in assay [1] is “[2Fe-2S] cluster assembly in the E. coli siderophore-reductase FhuF”; in assay [2] it was “the E. coli ferredoxin, a [2Fe-2S] cluster-containing protein”.
